# From US20060058217A1, “Compositions and methods for treatment of ovarian cancer” (priority 2003, published 2006)
# Key:
# [1] = test system: splenic cytotoxic T-cells; test: redirected lysis assay of spleen cells co-cultured with tumor ascites inhibitory cells; format: cell-based, mouse; settings: antalarmin 0.5 to 1 micromolar; 3 days co-culture in vitro; stimulation with anti-CD3/CD28 monoclonal antibodies
# Protocol: To assess the IL-2 responsiveness of T-cells within murine ascites, whole populations of cells were cultured overnight for up to 3 days with IL-2 and then tested for lytic activity using the redirected lysis assay. The assay was similar to the assay described for human cells but an anti-mouse CD3 monoclonal antibody (2C11) was used instead of OKT3. While control splenic cells from non-tumor bearing mice contained cytotoxic T-cell lytic function, the ascites samples had no IL-2 responsive T-cell lytic activity.
# Experiments were then performed with antalarmin, a CRH receptor antagonist, to determine if manipulation of CRH activity was involved in the regulation of lytic activity in ovarian carcinoma cells. Spleen cells from normal non-tumor bearing mice were co-cultured in vitro for 3 days with tumor ascites inhibitory cells from the mouse model system. […]
# Freshly isolated reproductive tract cells were tested for lytic function by an anti-CD3 mAb (OKT3)-dependent redirected lysis assay (White et al., J. Immunology 158:3017, 1997). […] The chromium released into the supernatant fraction was measured to obtain the percent specific cytotoxicity (% specific lysis), i.e. percent of labeled target cells killed by CD3+ effector cells, using duplicate wells and a titration of 3 effector to target ratios. […]
# [2] = test system: implantation sites and live embryos; settings: rodents; antalarmin administration; cited from earlier work
# [3] = test system: Fas ligand; settings: resulting in decreased apoptosis of fetal cell-recognizing T-cells; cited from earlier work
# [4] = test system: spleen cells; test: splenic cell yields after challenge with ID8 murine ovarian carcinoma cells; format: in vivo, C57BL6 mice
# Description: Normal C57BL6 mice were challenged with ID8 murine ovarian carcinoma cells (intraperitoneally) in the presence of control vehicle (diluent), antalarmin, T-cell stimulation with 2C11 antibody, or antalarmin plus T-cell stimulation. Ten days after challenge, spleen cells were harvested and T-cells were restimulated with either antibody to the T-cell receptor and co-receptor or ID8 tumor cells in the presence of antalarmin, antibody stimulation, or a combination of antalarmin plus antibodies to T-cell receptor and co-receptor. Six days later, cells were harvested and tested for splenic cell yields. […] Treatment with tumor cells plus antalarmin plus antibody stimulation in the in vivo priming phase, followed by restimulation with irradiated tumor cells in the presence of antalarmin, provided conditions also favorable for preventing spleen cell loss induced by tumor cells. Thus, antalarmin was an important factor in preserving immune cells in vivo in the initial phases of ovarian cancer disease.
# [5] = test system: stimulated splenic T-cells (CD3+ and CD8+); test: FACS analysis of splenic CD3+ and CD8+ cells co-cultured with tumor ascites inhibitory cells; format: cell-based, mouse; settings: antalarmin 0.5 to 1 micromolar; co-culture with tumor ascites inhibitory cells
structure (smiles),measurement,setting,value
CCCCN(CC)c1nc(C)nc2c1c(C)c(C)n2-c1c(C)cc(C)cc1C [antalarmin],cytotoxic T-cell lytic function down-regulated by tumor ascites inhibitory cells,[1],prevented the down-regulation
same,number of implantation sites and live embryos,[2],decreased the number of implantation sites an live embryos
same,fetal cell Fas ligand expression,[3],decrease fetal cell Fas ligand expression
same,loss of spleen cells at early stages of ovarian carcinoma disease,"[4]; ID8 cells intraperitoneally, spleen cells harvested ten days after challenge, restimulated, yields tested six days later",prevented the loss of spleen cells
same,splenic cell yields,"[4]; antalarmin added to tumor cells for in vivo priming phase, then non-specific stimulation or no stimulation in restimulation phase",best yields of spleen cells
same,loss of CD3-stimulated T-cells mediated by murine ascites inhibitory cells,[5],prevent the loss of CD3− stimulated T-cells
